Results: paper PMC8406298, “Discovery of Fungus-Specific Targets and Inhibitors Using Chemical Phenotyping of Pathogenic Spore Germination” (mBio, 2021)

Experiments:
Cryptococcus spores = assay: Quantitative germination assay (QGA), automated microscopy of spore germination; format: cell-based, Cryptococcus neoformans serotype D (deneoformans); conditions: for germination inhibition phenotype (chemical phenotype) in QGA: at phenotypic concentration
Protocol: In this automated microscopy-based assay, germination progression of spores is monitored as a function of changes in cell morphology over time (spores are small and oval; yeast are large and circular). Individual spores in a population (∼1 × 10^4 per sample) are measured to determine size (area) and shape (aspect ratio) from the onset of germination, and the data are collected for each cell over the time of germination (Fig. 1A).
Germination assays were modified from those described by Barkal et al. to introduce automation, increase throughput, and refine assay consistency ([12]). Briefly, 384-well plates (Thermo Scientific 142762) were loaded with 10^5 spores per well, and at 0 h, synthetic medium plus 2% dextrose (SD medium) containing the compounds of interest was added to the sample (final volume of 40 μl). All compounds were tested initially at 80 μM; however, concentrations were changed on a case-by-case basis for subsequent experiments. All assays and controls were performed with a final concentration of 0.8% DMSO (the compound solvent) unless specified otherwise. Spores were germinated at 30°C in a humidified chamber, and the same ∼5 × 10^3 cells were monitored every 2 h for 16 h. Imaging was performed on a Ti2 Nikon microscope, and each condition was visualized in a minimum of two individual wells with three fields of view acquired from each well. All images were analyzed as described previously based on cell shape and size using ImageJ. The population ratios of spores, intermediates, and yeast were determined. Error bars in plots are based on the variation among all fields of view acquired. Level of germination was determined by quantifying the decrease in the proportion of spores in a population, and rates were quantified by determining the change in this proportion over time. For all two-dimensional histograms, the x axis represents area from 0 μm^2 to 25 μm^2, and the y axis represents the aspect ratio from 0.4 to 1.
Cycloheximide (0.078 μM to 80 μM) (Dot Scientific, Inc. DSC81040-1), G418 (1.6 mM) (Fisher Scientific AAJ6267106), and puromycin (20 mM) (Dot Scientific, Inc. DSP33020-0.025) were tested with no DMSO (all were water soluble), whereas anisomycin (62.5 μM) (Sigma-Aldrich A9789-5MG) was tested in 2.5% DMSO.
Furcarbanil (80 μM) (Sigma-Aldrich T313122), rotenone (10 μM) (Fisher Scientific 501687383), and antimycin A (2.5 μM) (Santa Cruz Biotechnology, Inc. sc-202467A) were all tested in 0.8% DMSO, and TTFA (200 μM) (Sigma-Aldrich 88300-5G) was tested in 3% DMSO.

[1] = system: Cryptococcus yeast (CHY3833 and CHY3836); assay: Yeast replication secondary screen (OD600); format: cell-based, Cryptococcus neoformans serotype D (deneoformans); conditions: 10 μM, 12 h at 30°C
Protocol: (ii) Yeast replication. CHY3833 and CHY3836 were each grown in YPD liquid overnight at 30°C to saturation and then resuspended in 0.5× YPD at an OD600 of 0.005. Strains were aliquoted into 384-well plates with inhibitors and grown for 12 h at 30°C at […] before OD600 readings were taken. Compounds that caused a >10% decrease in growth were considered yeast growth inhibitors.

[2] = system: normal human dermal fibroblasts (NHDF) cells; assay: Fibroblast cytotoxicity (CellTiter-Glo); format: cell-based; conditions: 10 µM
In short: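 Normal human dermal fibroblasts, 1 × 10^3 per well, exposed to compounds at 10 μM for 72 h at 37°C. Viability read as ATP-dependent CellTiter-Glo luminescence. Dose-response runs titrated compounds from 80 μM to 0.5 μM in duplicate.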

Compound	germination inhibition phenotype (chemical phenotype) in QGA (Cryptococcus spores)	phenotypic concentration (concentration showing the germination phenotype in QGA) (Cryptococcus spores) [µM]	Yeast Inhibition: % Inhibition [1] [%]	Cytotoxicity: Relative Cell Viability (% of Negative Control) [2]
COc1ccc(SCCCC(=O)Nc2ncnc3sccc23)cc1 [A8]	asynchrony	–	–	–
Cc1ccc(OCCn2c(C)nc3ccccc32)cc1 [PubChem CID 790960]	slow down	80	–	–
COc1cccc2cc(-c3csc(NN=C4CCN(C)CC4)n3)c(=O)oc12 [PubChem CID 4913014]	asynchrony	20	–	–
O=C(CCc1ccccc1Br)N1CCC(c2ccsc2)CC1 [PubChem CID 71807075]	asynchrony	40	–	–
CCCOc1ccc(CSc2nc3ccccc3[nH]2)cc1 [PubChem CID 1653621]	slow down	80	–	–
Nc1nc(-c2ccc(Oc3ccccc3)cc2)cs1 [PubChem CID 780598]	bimodal	20	–	–
O=C(Nc1nc2c(Br)cccc2s1)C1CC1 [PubChem CID 7202929]	asynchrony	10	–	–
Cc1nc(NC(=O)CCc2ccccc2)sc1C [PubChem CID 733834]	morphological variability	40	–	–
COc1ccc(C[C@H]2NC[C@H](O)[C@H]2OC(C)=O)cc1 [anisomycin, reference compound]	slow-down	–	–	–
Cc1ccc(-c2nnc(Cn3cnc4ccccc43)o2)cc1 [PubChem CID 16456942]	slow down	5	–	–
ClC1(Cl)CC1Cn1cnc2ccccc21 (stereo not drawn) [PubChem CID 2936975]	slow down	40	–	–
COc1ccc(C[C@H](N)C(=O)N[C@H]2[C@@H](O)[C@H](n3cnc4c(N(C)C)ncnc43)O[C@@H]2CO)cc1 [puromycin, reference compound]	slow-down	–	–	–
CCn1c(CSc2ccccc2)nc2ccccc21 [PubChem CID 2992099]	slow down	80	–	–
CN(C)CCN(C(=O)c1c[nH]c2ccccc12)c1nc2ccc(OC(F)(F)F)cc2s1.Cl [PubChem CID 71782913]	asynchrony	20	–	–
CCc1ccc2nc(N)sc2c1 [PubChem CID 773093]	slow end	5	–	–
O=C(c1cc(-c2ccco2)on1)N1CCC(c2cccs2)CC1 [PubChem CID 71786870]	asynchrony	40	–	–
O=C(Nc1nc2c(s1)CN(C(=O)C1(c3cccs3)CCCC1)CC2)c1ccoc1 [compound 71788301]	–	–	8.3	91.4 % of Negative Control
COC(=O)c1sc(S(=O)(=O)Nc2cccc(C(F)(F)F)c2)c(C(=O)OC)c1C [compound 1190482]	–	–	2.5	90.9 % of Negative Control
O=[N+]([O-])CC(SCCO)c1ccc(O)cc1 (stereo not drawn) [compound 4737365]	–	–	99.2	25.2 % of Negative Control
COc1ccc(C2=CC(=O)C=CC2=O)cc1 [compound 121637]	–	–	100.9	3.0 % of Negative Control
O=C(NCCc1nc2c(c(C(F)(F)F)n1)CCCC2)c1ccc(F)cc1Cl [compound 71797126]	–	–	20.3	106.4 % of Negative Control
